Patent publication US6893642B1, “Algae protein polysaccharide extraction and use thereof” (priority 1999, dated 2005)

How the values were obtained:
mice injected with CTX = assay: T-lymphocyte test; format: in vivo; conditions: positive control: CTX 10 mg/kg/d then water p.o.
Description: Mice, body weight of 18-22 g, were randomly divided into a blank control group, positive control group, a higher dose group and a lower dose group, with 10 mice per group. The mice in the treated groups were injected with CTX at a dose of 10 mg/kg/d, and then treated with proteoglycan extracts of Spirulina via p.o., at the same dose as above. The mice in the positive control group were treated with CTX at a dose of 10 mg/kg/d, and then treated with water via p.o. the mice in the control group only were treated with water via p.o. after the treatment was continuously taken for 10 days, the treatment was stopped for 2 days. Blood was harvested from eye sockets of the mice for lymphocyte slices. After incubation and dyeing, T-lymphocyte percentage was determined.

[1] = target: T1, PTK picked up from A431 cell containing the EGFR (Homo sapiens, UniProt P00533); assay: Phosphorylation of protein tyrosine kinase (PTK); format: biochemical
T1 construct: we used A431 cell containing the EGFR for picking up PTK; endogenous in cells; host or cells: A431 cells
T1 sequence (P00533 25-1210): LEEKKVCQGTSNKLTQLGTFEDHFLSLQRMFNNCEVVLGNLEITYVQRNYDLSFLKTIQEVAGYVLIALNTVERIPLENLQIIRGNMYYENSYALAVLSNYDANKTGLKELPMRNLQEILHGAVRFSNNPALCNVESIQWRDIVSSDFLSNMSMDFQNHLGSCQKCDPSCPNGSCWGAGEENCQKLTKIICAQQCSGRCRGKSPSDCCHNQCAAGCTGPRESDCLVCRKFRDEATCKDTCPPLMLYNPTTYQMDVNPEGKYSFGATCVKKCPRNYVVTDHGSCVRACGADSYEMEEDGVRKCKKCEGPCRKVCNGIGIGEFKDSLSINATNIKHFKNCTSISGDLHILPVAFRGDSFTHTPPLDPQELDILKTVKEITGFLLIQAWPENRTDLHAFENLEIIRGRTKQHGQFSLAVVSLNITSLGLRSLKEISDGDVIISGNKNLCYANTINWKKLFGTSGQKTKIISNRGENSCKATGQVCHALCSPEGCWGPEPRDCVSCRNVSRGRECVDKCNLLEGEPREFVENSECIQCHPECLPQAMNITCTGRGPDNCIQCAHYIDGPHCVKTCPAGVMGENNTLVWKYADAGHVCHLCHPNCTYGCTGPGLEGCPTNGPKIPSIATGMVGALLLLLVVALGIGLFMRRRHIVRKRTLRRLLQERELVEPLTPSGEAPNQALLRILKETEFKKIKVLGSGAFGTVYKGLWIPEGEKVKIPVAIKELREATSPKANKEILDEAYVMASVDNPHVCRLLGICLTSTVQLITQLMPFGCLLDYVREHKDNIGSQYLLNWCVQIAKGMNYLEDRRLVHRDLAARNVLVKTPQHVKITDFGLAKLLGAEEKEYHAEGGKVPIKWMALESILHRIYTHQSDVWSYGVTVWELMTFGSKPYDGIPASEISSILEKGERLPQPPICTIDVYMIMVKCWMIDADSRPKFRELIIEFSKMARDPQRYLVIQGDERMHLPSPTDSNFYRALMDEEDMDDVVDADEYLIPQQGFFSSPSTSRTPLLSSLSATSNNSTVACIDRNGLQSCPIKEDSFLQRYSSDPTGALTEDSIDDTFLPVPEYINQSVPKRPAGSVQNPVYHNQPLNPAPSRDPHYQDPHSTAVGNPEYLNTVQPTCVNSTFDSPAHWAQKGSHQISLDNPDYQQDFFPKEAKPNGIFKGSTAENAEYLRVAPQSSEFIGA
From the text: Epidermal growth factor receptor (EGFR), a PTK of receptor type, is a single-stranded trans-membrane glycoprotein consisting of 1186 amino acids, whose molecular weight is […], and exists extensively on the epithelial membrane of the mammals. The C end of the EGFR can recognize and activate many cellular substrates after phosphorylated, then effect on metabolization, growth and carcinogenesis of a cell. […] In our research, we used A431 cell containing the EGFR for picking up PTK, so as to observe the effect of the proteoglycan extract of spirulina on phosphorylation of PTK.

SMILES	T-lymphocyte percentage (mice injected with CTX) [%]	inhibition rate ([1]; Results 1, positive control, 2.5 mM)	inhibition rate ([1]; Results 2, positive control, 0.25 mM)	inhibition rate ([1]; Results 3, positive control, 0.25 mM)
O=P1(N(CCCl)CCCl)NCCCO1 (stereo not shown) [CTX]	25.6 ± 2.51	–	–	–
N#CC(C#N)=Cc1cc(O)c(O)c(O)c1 [tyrphostin 25]	–	Positive control: 2.5 mM tyrphostin 25, inhibition rate: 100%	Positive control: 0.25 mM tyrphostin 25, inhibition rate: 86.1%	Positive control: 0.25 mM tyrphostin 25, inhibition rate: 80.5%
